Data on one substance can be found in patent US7422694B2, “Process for the microbiological decontamination of water by means of photosensitive agents” (priority 2001, dated 2008).

One assay deals with Staphylococcus aureus. Nature of the assay: Decrease in Staphylococcus aureus viability on exposure to visible light in the presence of hematoporphyrin (FIG. 8). In kind it is cell-based. The settings on record: hematoporphyrin at 0.1 pg/ml and 1 μg/ml, cells in stationary or logarithmic growth phase. On the procedure: FIG. 8 is a plot where the experimental results relating to the decrease in Staphylococcus aureus viability on exposure to visible light in the presence of hematoporphyrin at 0.1 pg/ml (circles) and 1 μg/ml (squares) concentrations were plotted. Bacterial cells were either in the stationary (closed symbols) or in the logarithmic (open symbols) growth phase.

Assay [1] concerns wild and antibiotics-resistant bacterial strains (e.g. Streptococcus and Staphylococcus strains), yeasts (e.g. Candida strains). Nature of the assay: Phototoxicity of hematoporphyrin towards bacterial strains and yeasts. In kind it is cell-based.

As to hematoporphyrin, in the assay on Staphylococcus aureus, the “photosensitised inactivation of Staphylococcus aureus” value is listed as “effectively this porphyrin photosensitises the inactivation”. Further, in assay [1], the phototoxicity entry is “exhibited phototoxicity”.
